Laboratory results reported in patent US4699903A, “Therapeutic use of tin diiododeuteroporphyrin” (The Rockefeller University, priority 1987, dated 1987).
Values joined by “and” are separate entries in the source; they are usually repeats but may differ in a detail not shown here. Equal values may be shown once. Read-outs that look alike come from different tables or passages of the source.

How the values were obtained:
[1] = Fluorescence characteristics in pyridine; assay type: physicochemical
Description: (2) Fluorescence characteristics: A 1 μM solution of SnI2 DP in pyridine was excited at 400 nm and 2 emission peaks were detected at 578 nm and 635 nm. The measurable fluorescence represents less than 5% of that found for SnPP and SnMP.

[2] = Singlet and triplet lifetimes; assay type: physicochemical
Description: (3) Singlet and triplet lifetimes: The singlet lifetime of SnI2 DP was determined to be 23 psec (this is at the lower levels of instrument detection). The singlet lifetimes of SnPP and SnMP are 500-600 p sec. The triplet lifetime of SnI2 DP was determined to be 0.2 millisec. The triplet lifetimes of SnPP and SnMP are 0.5 and 2.5 milliseconds respectively.

heme oxygenase [3] = test: Tissue heme oxygenase activity in newborn rats after SnI2 DP; assay type: in vivo, rat
Description: (§1) The in vivo ability of SnI2 DP to reduce serum bilirubin was established by studies in neonatal rats. The studies were conducted with four separate litters each containing ten neonates.
(§2) To prepare the solution for parenteral administration, SnI2 DP was taken up in a small volume of 0.2N sodium hydroxide, adjusted to pH 7.4 with 1N hydrochloric acid and made up to final volume with 0.9% sodium chloride. The solution as prepared and used contained a final SnI2 DP concentration of 10 μmol/kg body weight in each 0.1 ml injection volume. Control neonates received 0.1 ml of 0.9% sodium chloride at birth. One group of animals was sacrificed at 24 hours which is normally the peak of bilirubin for neonate rates. The total bilirubin in serum was estimated by the method of Roth, Clin. Chem. Acta, 17 487-492, 1967.
(§3) Heme oxygenase was determined as described by Drummond and Kappas Proc. Natl. Acad. Sci. USA 78: 6466(1981).

serum bilirubin [4] = test: Serum bilirubin levels in newborn rats; assay type: in vivo, rat
Description: as §1, §2

heme oxygenase [5] = test: Hepatic heme oxygenase activity in ALA-treated 7-day old suckling rats; assay type: in vivo, rat; settings: ALA 50 μmmol/100 g at 0, 4 and 8 hours, sacrificed 16 hours after last ALA
Description: (§4) The next study established the ability of SnI2 DP to inhibit the ability of γ-aminolevulinic acid (ALA) to produce jaundice. This study of the efficacy of SnI2 DP to control hyperbilirubinemia thereby preventing the jaundice which develops in rats treated 7 days after birth with ALA is described by Drummond and Kappas, J. Clin. Invest. 74, 142-149 (1984). In the test, ALA (50 μmmol/100 g body weight) is administered to suckling 7 day old rats at 0, 4 and 8 hours, the animals sacrificed 16 hours after the last administration of ALA, and the serum biliribin measured.
as §3

serum bilirubin [6] = test: Serum bilirubin in ALA-treated hyperbilirubinemia, 7-day old suckling rats; assay type: in vivo, rat; settings: ALA 50 μmmol/100 g at 0, 4 and 8 hours, sacrificed 16 hours after last ALA
Description: as §4

biliary bilirubin = test: Drop in biliary bilirubin production in bile duct cannulated adult rats; assay type: in vivo, rat
Description: (§5) In the next in vivo test designed to measure the decrease in bilirubin production, SnI2 DP was administered intravenously to five adult rats, 12-15 weeks old at a dose of 10 μmol/kg body weight. Five control rats were administered saline. The bile duct was cannulated and the bile fluid analyzed for bilirubin content.

heme oxygenase [7] = test: Tissue heme oxygenase activity in bile duct cannulated adult rats; assay type: in vivo, rat; settings: i.v. 10 μmol/kg b.w., n=5
Description: as §5
(§6) In addition, the activity of hepatic, renal and splenic heme oxygenase was decreased in bile duct cannulated animals administered SnI2 DP.
(§7) SnI2 DP administered i.v. at a dose of 10 μmol/kg b.w.
(§8) When compared to saline treated controls, n=5.

heme = test: Heme excretion in bile after simultaneous i.v. heme and SnI2 DP, bile duct cannulated adult male rats; assay type: in vivo, rat; settings: heme 6.1 μmol/kg b.w. i.v. simultaneously
Description: (§9) Simultaneous intraveous (IV) administration of heme (6.1 μmol/kg b.w.) and SnI2 DP was examined in four pairs of bile duct cannulated adult male rats. The effect of simultaneous administration of heme and SnI2 DP on heme levels in bile and tissue heme oxygenase activity are shown in Tables V and VI respectively.
(§10) Each group was administered heme (6.1 μmol/kg b.w.) simultaneously with either SnI2 DP or saline.

heme oxygenase [8] = test: Tissue heme oxygenase activity after simultaneous administration of heme; assay type: in vivo, rat; settings: heme 6.1 μmol/kg b.w. simultaneously, n = 4
Description: as §9, §10

heme oxygenase [9] = molecular target: T1, heme oxygenase (Rattus norvegicus, UniProt P06762); test: Tissue heme oxygenase activity in bile duct cannulated adult rats; assay type: in vivo; design: from tissue; settings: i.v. 10 μmol/kg b.w., n=5
T1 sequence (P06762 1-289): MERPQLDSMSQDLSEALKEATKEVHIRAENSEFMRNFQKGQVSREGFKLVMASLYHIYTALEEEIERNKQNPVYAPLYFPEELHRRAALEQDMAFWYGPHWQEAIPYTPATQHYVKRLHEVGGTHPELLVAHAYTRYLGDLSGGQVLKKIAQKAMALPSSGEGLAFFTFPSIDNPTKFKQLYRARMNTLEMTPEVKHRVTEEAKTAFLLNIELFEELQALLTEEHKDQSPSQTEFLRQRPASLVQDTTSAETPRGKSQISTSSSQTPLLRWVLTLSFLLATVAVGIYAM
Description: as §5, §6, §7, §8

heme oxygenase [10] = molecular target: T1, heme oxygenase; test: Tissue heme oxygenase activity after simultaneous administration of heme; assay type: in vivo; design: from tissue; settings: heme 6.1 μmol/kg b.w. simultaneously, n = 4
Description: as §9, §10

heme oxygenase [11] = molecular target: T1, heme oxygenase; test: Inhibition of heme oxygenase conversion of heme to bilirubin, rat spleen microsomes; assay type: biochemical; design: using rat spleen microsomes as the source of heme oxygenase; from tissue; host or cells: rat spleen microsomes; settings: for Ki: rat spleen microsomes; for inhibition constant compared with that of SnI2 DP: heme oxygenase
Description: In an initial study using rat spleen microsomes as the source of heme oxygenase the ability of SnI2 DP to inhibit the activity of heme oxygenase to convert heme to bilirubin was determined.
Km=rate constant for heme oxygenase
KmAPP =rate constant for heme oxygenase in the presence of SnI2 DP

For tin diiododeuteroporphyrin [SnI2 DP], the “fluorescence quenched by comparison with SnPP” value [1] was 95%, the “measurable fluorescence as % of that found for SnPP and SnMP” value ([1]; 1 μM solution in pyridine, excited at 400 nm) was “less than 5%” and the singlet lifetime [2] was 23 psec. The triplet lifetime [2] was 0.2 millisec, the “photosensitizing potential compared with SnPP and SnMP” value ([2]; inferred from fluorescence and triplet lifetime) was “less photosensitizing potential” and the “kidney heme oxygenase activity” value (heme oxygenase [3]; neonates, repeated test, 48 hours after birth) was 0.88 nmol/mg p h. The “Heme Oxygenase Kidney” value (heme oxygenase [3]; newborn rats, 10 μmol/kg at birth, 24 hours, kidney bulked) was 1.13 nmol/mg p h, the “Heme Oxygenase Spleen” value (heme oxygenase [3]; newborn rats, 10 μmol/kg at birth, 24 hours, spleen bulked) was 3.74 nmol/mg p h and the “Heme Oxygenase Liver” value (heme oxygenase [3]; newborn rats, 10 μmol/kg at birth, sacrificed at 24 hours) was 8.07 ± 0.06 nmol/mg p h. The “Serum Bilirubin” value (serum bilirubin [4]; newborn rats, 10 μmol/kg at birth, 24 hours) was 0.34 ± 0.02 mg/dL, the “activity in preventing serum bilirubin increase, as % of that of SnMP” value (serum bilirubin [4]; rat neonates) was “about 10%” and the “activity in preventing serum bilirubin increase, compared with SnPP” value (serum bilirubin [4]; rat neonates) was “roughly the same”. For the same compound, the “Heme Oxygenase Liver” value (heme oxygenase [5]) was 8.29 ± 0.48 nmol/mg p h, the “Serum Bilirubin” value (serum bilirubin [6]) was 0.54 ± 0.02 mg/dL and the “Drop in biliary bilirubin production, % decrease” value (biliary bilirubin; adult rats, 10 μmol/kg i.v., bile duct cannulated, single experiments 1-5) was 60% and 35% and 47% and 44% and 48%. The “average difference between treated and control decline in biliary bilirubin” value (biliary bilirubin; adult rats, 10 μmol/kg i.v., p<0.01) was 21%, the “ability to lower heme oxygenase activity, serum and bile bilirubin levels, compared with SnMP” value (biliary bilirubin; rats) was “not as effective as SnMP” and the “Heme Oxygenase Kidney” value (heme oxygenase [7]) was 0.45 ± 0.03 nmol/mg p h. For the same compound, the “Heme Oxygenase Liver” value (heme oxygenase [7]) was 2.06 ± 0.75 nmol/mg p h, the “Heme excreted in bile (% of administered dose), Average” value (heme; average of 4 experiments) was 44.9 ± 4.79 % of administered dose and the “Heme excreted in bile (% of administered dose)” value (heme; single experiments 1-4) was 51.8 % of administered dose and 48.8 % of administered dose and 48.2 % of administered dose and 30.7 % of administered dose. The “Heme Oxygenase Kidney” value (heme oxygenase [8]) was 1.04 ± 0.22 nmol/mg p h, the “Heme Oxygenase Liver” value (heme oxygenase [8]) was 5.03 ± 0.72 nmol/mg p h and the “Heme Oxygenase Spleen” value (heme oxygenase [9]) was 5.37 ± 1.09 nmol/mg p h. For the same compound, the “Heme Oxygenase Spleen” value (heme oxygenase [10]) was 8.15 ± 0.52 nmol/mg p h, the Ki (heme oxygenase [11]; Lineweaver Burke plots, average of four determinations, read-out: inhibition constant Ki) was 69 ± 7 nM and the Ki (heme oxygenase [11]; four separate determinations, read-out: Ki, separate determinations) was 57 nM and 88 nM and 62 nM and 70 nM.
For `NCC(=O)CCC(=O)O` [ALA, γ-aminolevulinic acid, reference compound], the “Heme Oxygenase Liver” value (heme oxygenase [5]) was 11.29 ± 0.33 nmol/mg p h and the “Serum Bilirubin” value (serum bilirubin [6]) was 0.99 ± 0.06 mg/dL.
In the case of tin mesoporphyrin [SnMP], the singlet lifetime [2] is reported as 500-600 psec, the triplet lifetime [2] is reported as 2.5 millisec and the “inhibition constant compared with that of SnI2 DP” value (heme oxygenase [11]) is reported as “approximately the same”.
In the case of `C=Cc1c2[n-]c(c1C)/C=c1\[n-]/c(c(C)c1C=C)=C\c1[n-]c(c(CCC(=O)O)c1C)C=c1[n-]/c(c(C)c1CCC(=O)O)=C\2.[Sn+4]` [SnPP, tin protoporphyrin IX], the singlet lifetime [2] is reported as 500-600 psec, the triplet lifetime [2] is reported as 0.5 millisec and the “inhibition constant compared with that of SnI2 DP” value (heme oxygenase [11]) is reported as “approximately the same”.
